Here are results for five molecules from ChEMBL document CHEMBL3860072, “Synthesis of a selective HDAC6 inhibitor active in neuroblasts” (Bioorg Med Chem Lett, 2016).

One may read the IC50 as the concentration that gives 50% inhibition.

Series [1] is described as follows: Effective passive permeability of the compound at 100 uM at pH 7.4 after 18 hrs by UHPLC-UV based PAMPA-BBB assay. In kind it is ADME. The following applies: read-out: Peff. (In general: The PAMPA barrier holds no transporters, so it reflects passive diffusion.)
Series [2] is described as follows: Effective passive permeability of the compound assessed as membrane retention at 100 uM at pH 7.4 after 18 hrs by UHPLC-UV based PAMPA-BBB assay. In kind it is ADME. The following applies: pH 7.4, 18 h.
In series [3] the target is Histone deacetylase 1/2/3 (Homo sapiens, UniProt Q13547+O15379+Q92769). In kind it is protein assay.
Series [4] concerns the target T1, Protein deacetylase HDAC6 (Homo sapiens, UniProt Q9UBN7).
T1 sequence (Q9UBN7 whole entry): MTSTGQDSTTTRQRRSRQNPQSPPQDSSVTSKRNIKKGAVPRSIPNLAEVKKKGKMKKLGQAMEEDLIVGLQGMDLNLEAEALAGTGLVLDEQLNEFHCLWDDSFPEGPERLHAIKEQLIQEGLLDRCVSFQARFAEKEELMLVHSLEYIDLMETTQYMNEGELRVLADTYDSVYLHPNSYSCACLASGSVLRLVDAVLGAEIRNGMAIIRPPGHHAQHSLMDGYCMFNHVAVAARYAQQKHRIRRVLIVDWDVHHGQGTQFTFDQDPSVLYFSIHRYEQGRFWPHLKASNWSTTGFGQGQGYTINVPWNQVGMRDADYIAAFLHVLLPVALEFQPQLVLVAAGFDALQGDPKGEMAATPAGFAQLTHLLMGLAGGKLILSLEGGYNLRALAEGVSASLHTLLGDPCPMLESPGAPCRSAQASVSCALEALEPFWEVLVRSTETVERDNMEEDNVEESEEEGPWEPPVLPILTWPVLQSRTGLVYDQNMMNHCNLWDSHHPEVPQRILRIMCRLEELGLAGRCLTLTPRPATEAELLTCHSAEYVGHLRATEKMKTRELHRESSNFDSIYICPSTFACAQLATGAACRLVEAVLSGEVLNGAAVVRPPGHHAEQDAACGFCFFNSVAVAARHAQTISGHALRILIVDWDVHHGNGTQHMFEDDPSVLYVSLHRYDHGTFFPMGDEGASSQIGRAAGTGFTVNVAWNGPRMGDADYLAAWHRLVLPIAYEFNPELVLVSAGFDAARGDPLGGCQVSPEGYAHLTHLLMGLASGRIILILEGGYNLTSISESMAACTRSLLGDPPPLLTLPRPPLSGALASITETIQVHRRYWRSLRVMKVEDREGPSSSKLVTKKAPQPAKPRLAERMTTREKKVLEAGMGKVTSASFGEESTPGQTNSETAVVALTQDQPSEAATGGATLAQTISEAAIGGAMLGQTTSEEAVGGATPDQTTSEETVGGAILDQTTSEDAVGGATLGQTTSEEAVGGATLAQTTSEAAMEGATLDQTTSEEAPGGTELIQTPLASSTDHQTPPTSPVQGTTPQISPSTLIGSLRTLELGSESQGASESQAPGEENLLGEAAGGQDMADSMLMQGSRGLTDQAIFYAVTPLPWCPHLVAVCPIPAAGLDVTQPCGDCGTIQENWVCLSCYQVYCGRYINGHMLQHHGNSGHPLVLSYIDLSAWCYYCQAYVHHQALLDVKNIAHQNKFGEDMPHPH
The series is described as follows: Inhibition of human recombinant HDAC6 expressed in baculovirus infected insect cells using BATCP as substrate after 4 hrs by UHPLC-ESI-MS/MS analysis.

Series [5] in a line: Inhibition of HDAC in human SHSY5Y cells using MAL as substrate after 8 hrs by UHPLC-ESI-MS/MS analysis. Type of series: cell-based. The following applies: SH-SY5Y.
In series [6] the target is T1, Protein deacetylase HDAC6. Briefly: Inhibition of HDAC6 in human SHSY5Y cells using BATCP as substrate after 8 hrs by UHPLC-ESI-MS/MS analysis. In kind it is cell-based, SH-SY5Y.
Series [7] concerns the target T2, Histone deacetylase 1 (Homo sapiens, UniProt Q13547).
Series [8] addresses T2, Histone deacetylase 1. The series is described as follows: biochemical.

SMILES strings stand for the structures.

T2 sequence (Q13547 whole entry): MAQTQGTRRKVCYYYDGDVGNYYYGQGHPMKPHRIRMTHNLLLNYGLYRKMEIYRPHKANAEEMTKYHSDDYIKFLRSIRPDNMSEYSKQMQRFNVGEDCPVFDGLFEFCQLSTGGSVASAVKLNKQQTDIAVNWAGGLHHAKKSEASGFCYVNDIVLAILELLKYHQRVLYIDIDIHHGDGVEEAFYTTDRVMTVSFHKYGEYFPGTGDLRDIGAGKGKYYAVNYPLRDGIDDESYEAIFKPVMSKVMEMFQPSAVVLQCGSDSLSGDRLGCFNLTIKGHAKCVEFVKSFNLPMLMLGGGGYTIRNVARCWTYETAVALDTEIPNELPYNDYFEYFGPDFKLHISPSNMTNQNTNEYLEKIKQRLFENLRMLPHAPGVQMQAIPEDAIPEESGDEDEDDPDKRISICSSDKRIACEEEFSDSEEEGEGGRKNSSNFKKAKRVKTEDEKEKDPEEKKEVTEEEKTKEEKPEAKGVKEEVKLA

For `CC(C)(C)OC(=O)ON(C(=O)CCCCCCC(=O)N(OC(=O)OC(C)(C)C)C(=O)OC(C)(C)C)C(=O)OC(C)(C)C`, in series [1], the Papp at 18 h, 100 µM is less than 2 ×10⁻⁶ cm/s. The R% in series [2] is given as less than 1%.
Take `O=C(CCCCCc1ccc2c(c1)OCO2)NO`: the IC50 amounted to 188.1 nM in series [3]; 36.7 nM in series [4]; 310 nM in series [5]; 164 nM in series [6]; 973 nM at Histone deacetylase 1 [7]; 560 nM on Histone deacetylase 1 [8]. Also, the Papp at 18 h, 100 µM in series [1] amounted to 8.7 ×10⁻⁶ cm/s. The R% in series [2] was 6.8%.
As for `O=C(CCCCCCC(=O)NO)NO` [SUBEROHYDROXAMIC ACID], the Papp at 18 h, 100 µM in series [1] was less than 2 ×10⁻⁶ cm/s. Moreover, in series [2], the R% is reported as less than 1%.
With `CC(/C=C/C(=O)NO)=C\[C@@H](C)C(=O)c1ccc(N(C)C)cc1` [TRICHOSTATIN], the IC50 in series [5] is 9.1 nM.
As for `CN1CCc2c(c3ccccc3n2Cc2ccc(C(=O)NO)cc2)C1` [TUBASTATIN A], the Papp at 18 h, 100 µM in series [1] was found to be 6.8 ×10⁻⁶ cm/s. The R% in series [2] is 70.8%. In addition, the midpoint of inhibition in series [5], the IC50, lay at 122 nM.
